# Assay results: article PMC4786259 (PLoS ONE, 2016)
# Columns and labels:
# β1-AR = β1-AR (Homo sapiens, UniProt P08588); test: PDSP radioligand competition binding; conditions: radioligand [^3H]CGP12177; read-out: In vitro Affinity
# hVMAT2 = molecular target: T1, hVMAT2 (Homo sapiens, UniProt Q05940); test: Vesicular 3H-DA uptake in vesicles isolated from HEK cells overexpressing VMAT2; assay type: biochemical
# T1 construct: expressed in transfected cells; pcDNA3.1 construct with zeocin resistance
# hDAT = hDAT (Homo sapiens, UniProt Q01959); test: Whole cell 3H-dopamine uptake in HEK-DAT cells
# Method: (§1) Cell culture: HEK293 cells (ATCC) lines stably expressing hDAT or hDAT and hVMAT2 constructs were cultured at 37°C and 5% CO2 in DMEM with 10% FBS.
# (§2) Whole cell ^3H-dopamine (DA) uptake: Cells were plated into 48-well plates one day before uptake was performed. […] After incubation, 25 μl uptake buffer containing ^3H-DA and DA was added for a final concentration of 20 nM ^3H-DA and 1 μM DA. Cells were incubated at 37°C for 20 minutes or for the time indicated. Nonspecific uptake was determined in the presence of 10 μM nomifensine. Uptake was terminated by aspirating uptake buffer and washing each well twice with 0.5 ml ice-cold uptake buffer. Cells were lysed in 0.1 N NaOH and transferred to vials containing 3 ml scintillation cocktail. Radioactivity was quantitated using a Beckman LS6500 counter. Data were analyzed in Graph Pad Prism 5.0.
# hDAT and hVMAT2 = test: Whole cell 3H-dopamine uptake in HEK-DAT/VMAT2 cells; conditions: nuciferine pre-treatment
# Method: as §1, §2
# H2 = H2 (Homo sapiens, UniProt P25021); test: PDSP radioligand competition binding; conditions: radioligand [^3H]Cimetidine; read-out: In vitro Affinity
# 5-HT6 = molecular target: T2, 5-HT6 (Homo sapiens, UniProt P50406); test: PDSP receptor functional assay; assay type: cell-based
# T2 construct: expressed in transfected cells
# α2B = α2B (Homo sapiens, UniProt P18089); test: PDSP radioligand competition binding; conditions: radioligand [^3H]Rauwolscine; read-out: In vitro Affinity
# D5 = D5 (Homo sapiens, UniProt P21918); test: PDSP radioligand competition binding; conditions: radioligand [^3H]SCH23390
# MOR = MOR (Homo sapiens, UniProt P35372); test: PDSP radioligand competition binding; conditions: radioligand [^3H]DAMGO; read-out: In vitro Affinity
# α1D = α1D (Homo sapiens, UniProt P25100); test: PDSP radioligand competition binding; conditions: radioligand [^3H]Prazosin; read-out: In vitro Affinity
# mice = test: Prepulse inhibition, pharmacological model using amphetamine; assay type: in vivo; conditions: data not shown
# 5-HT1A = molecular target: T3, 5-HT1A (Homo sapiens, UniProt P08908); test: PDSP radioligand competition binding; conditions: radioligand [^3H]WAY100635; read-out: In Vitro Affinity
# T3 construct: expressed in transfected cells
# T3 sequence (P08908 1-422): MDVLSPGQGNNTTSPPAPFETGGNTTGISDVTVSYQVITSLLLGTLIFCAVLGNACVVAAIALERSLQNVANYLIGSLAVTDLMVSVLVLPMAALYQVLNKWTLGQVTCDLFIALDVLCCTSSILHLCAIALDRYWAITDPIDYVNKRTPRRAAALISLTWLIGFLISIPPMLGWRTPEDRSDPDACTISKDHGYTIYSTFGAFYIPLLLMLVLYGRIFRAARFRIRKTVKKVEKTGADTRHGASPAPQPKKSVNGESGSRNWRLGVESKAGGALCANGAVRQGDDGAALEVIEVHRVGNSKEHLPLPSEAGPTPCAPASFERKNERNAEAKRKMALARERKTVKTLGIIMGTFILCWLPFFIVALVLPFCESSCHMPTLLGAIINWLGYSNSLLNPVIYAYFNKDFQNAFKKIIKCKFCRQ
# α2A = α2A (Homo sapiens, UniProt P08913); test: PDSP radioligand competition binding; conditions: radioligand [^3H]Rauwolscine; read-out: In vitro Affinity
# male C57BL/6J mice = test: Catalepsy, inclined screen test; conditions: for latency to movement: nuciferine 10.0 mg/kg i.p.
# β3-AR = β3-AR (Homo sapiens, UniProt P13945); test: PDSP radioligand competition binding; conditions: radioligand [^3H]CGP12177; read-out: In vitro Affinity
# [1] = rats; cited from earlier work
# male NIH Swiss mice = test: DOI drug discrimination; assay type: in vivo
# D4 = molecular target: T4, D4 (Homo sapiens, UniProt P21917); test: PDSP radioligand competition binding; conditions: radioligand [^3H]N-methyl Spiperone; read-out: In Vitro Affinity
# T4 construct: expressed in transfected cells
# T4 sequence (P21917 1-419): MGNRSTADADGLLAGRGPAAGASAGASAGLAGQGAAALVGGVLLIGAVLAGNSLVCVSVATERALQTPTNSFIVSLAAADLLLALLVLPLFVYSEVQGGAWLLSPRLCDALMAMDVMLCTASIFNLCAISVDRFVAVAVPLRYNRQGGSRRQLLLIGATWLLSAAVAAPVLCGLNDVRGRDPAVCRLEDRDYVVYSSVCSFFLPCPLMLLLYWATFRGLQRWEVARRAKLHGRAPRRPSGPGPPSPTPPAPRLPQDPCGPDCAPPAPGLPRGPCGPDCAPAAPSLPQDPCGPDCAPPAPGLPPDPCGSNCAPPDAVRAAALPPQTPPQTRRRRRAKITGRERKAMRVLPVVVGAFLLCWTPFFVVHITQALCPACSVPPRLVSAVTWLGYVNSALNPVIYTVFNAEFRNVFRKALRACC
# 5-HT2B = molecular target: T5, 5-HT2B (Homo sapiens, UniProt P41595); test: PDSP receptor functional assay; assay type: cell-based
# T5 construct: expressed in transfected cells
# 5-HT7 = molecular target: T6, 5-HT7 (Homo sapiens, UniProt P34969); test: PDSP radioligand competition binding; conditions: radioligand [^3H]LSD; read-out: In Vitro Affinity
# T6 construct: expressed in transfected cells
# DOR = DOR (Homo sapiens, UniProt P41143); test: PDSP radioligand competition binding; conditions: radioligand [^3H]DADLE; read-out: In vitro Affinity
# 5-HT2C = molecular target: T7, 5-HT2C (Homo sapiens, UniProt P28335); test: PDSP receptor functional assay; assay type: cell-based
# T7 construct: expressed in transfected cells
# T7 sequence (P28335 33-458): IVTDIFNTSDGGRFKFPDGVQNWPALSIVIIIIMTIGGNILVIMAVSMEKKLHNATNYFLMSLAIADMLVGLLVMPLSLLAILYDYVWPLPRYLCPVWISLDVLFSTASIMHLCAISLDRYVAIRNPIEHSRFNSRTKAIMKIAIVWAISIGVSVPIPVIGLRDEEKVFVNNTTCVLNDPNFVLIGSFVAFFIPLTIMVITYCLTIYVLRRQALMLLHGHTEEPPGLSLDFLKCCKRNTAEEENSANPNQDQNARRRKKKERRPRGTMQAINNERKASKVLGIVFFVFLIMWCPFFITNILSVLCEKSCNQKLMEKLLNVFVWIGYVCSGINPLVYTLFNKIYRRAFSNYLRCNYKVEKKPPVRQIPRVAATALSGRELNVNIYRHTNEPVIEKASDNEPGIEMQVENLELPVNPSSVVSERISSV
# T5 sequence (P41595 whole entry, species assumed): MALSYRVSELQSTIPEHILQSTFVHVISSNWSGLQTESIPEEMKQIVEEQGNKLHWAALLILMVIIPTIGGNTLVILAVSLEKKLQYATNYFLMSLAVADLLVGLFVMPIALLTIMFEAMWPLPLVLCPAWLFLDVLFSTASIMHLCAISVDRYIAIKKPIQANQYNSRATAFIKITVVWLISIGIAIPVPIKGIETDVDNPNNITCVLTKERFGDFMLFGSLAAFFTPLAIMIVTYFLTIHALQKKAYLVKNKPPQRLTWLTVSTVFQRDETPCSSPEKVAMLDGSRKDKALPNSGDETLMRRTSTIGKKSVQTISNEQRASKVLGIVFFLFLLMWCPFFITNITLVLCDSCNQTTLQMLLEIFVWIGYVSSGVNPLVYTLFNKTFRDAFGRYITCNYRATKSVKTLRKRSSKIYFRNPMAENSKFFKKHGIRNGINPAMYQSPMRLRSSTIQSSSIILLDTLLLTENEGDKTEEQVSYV
# T2 sequence (P50406 whole entry, species assumed): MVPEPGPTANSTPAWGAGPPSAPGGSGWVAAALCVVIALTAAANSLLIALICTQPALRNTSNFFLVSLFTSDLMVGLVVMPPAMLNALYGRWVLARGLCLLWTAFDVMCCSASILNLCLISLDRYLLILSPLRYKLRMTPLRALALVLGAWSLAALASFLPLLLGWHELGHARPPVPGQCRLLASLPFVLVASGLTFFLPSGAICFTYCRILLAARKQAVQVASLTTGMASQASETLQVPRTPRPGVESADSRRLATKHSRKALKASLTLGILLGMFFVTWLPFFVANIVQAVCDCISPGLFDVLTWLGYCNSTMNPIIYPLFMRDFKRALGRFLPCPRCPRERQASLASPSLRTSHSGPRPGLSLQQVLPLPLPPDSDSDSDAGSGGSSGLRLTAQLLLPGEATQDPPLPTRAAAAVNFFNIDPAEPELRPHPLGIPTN
# Chain of hDAT (Q01959 whole entry): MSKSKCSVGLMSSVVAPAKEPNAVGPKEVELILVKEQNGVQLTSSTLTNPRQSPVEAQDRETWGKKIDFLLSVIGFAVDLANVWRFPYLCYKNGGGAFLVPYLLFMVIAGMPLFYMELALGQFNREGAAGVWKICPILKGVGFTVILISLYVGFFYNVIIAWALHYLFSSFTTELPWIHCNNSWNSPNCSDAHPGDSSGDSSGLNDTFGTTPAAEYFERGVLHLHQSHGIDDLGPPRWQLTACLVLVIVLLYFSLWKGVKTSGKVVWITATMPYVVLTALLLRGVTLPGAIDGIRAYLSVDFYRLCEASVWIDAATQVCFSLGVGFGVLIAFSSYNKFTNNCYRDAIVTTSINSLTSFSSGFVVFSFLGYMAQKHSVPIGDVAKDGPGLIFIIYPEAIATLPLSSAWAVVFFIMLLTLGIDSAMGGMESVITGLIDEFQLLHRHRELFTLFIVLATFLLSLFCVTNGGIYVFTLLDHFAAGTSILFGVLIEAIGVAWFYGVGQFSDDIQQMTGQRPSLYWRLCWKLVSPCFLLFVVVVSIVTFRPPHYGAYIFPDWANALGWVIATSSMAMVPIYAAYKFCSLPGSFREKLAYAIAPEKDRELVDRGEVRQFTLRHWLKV
# Chain of MOR (P35372 whole entry): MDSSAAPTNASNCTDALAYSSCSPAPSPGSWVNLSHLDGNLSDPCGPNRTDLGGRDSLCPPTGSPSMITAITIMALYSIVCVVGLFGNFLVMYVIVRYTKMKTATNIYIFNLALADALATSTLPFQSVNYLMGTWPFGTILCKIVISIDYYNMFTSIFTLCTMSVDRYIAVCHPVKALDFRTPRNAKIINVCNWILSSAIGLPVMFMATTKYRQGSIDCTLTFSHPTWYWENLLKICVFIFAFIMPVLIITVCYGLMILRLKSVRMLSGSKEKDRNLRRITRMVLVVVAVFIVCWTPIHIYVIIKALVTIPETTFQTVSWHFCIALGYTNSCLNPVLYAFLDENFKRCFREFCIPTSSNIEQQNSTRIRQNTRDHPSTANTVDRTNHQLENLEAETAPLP
# Chain of α2B (P18089 whole entry): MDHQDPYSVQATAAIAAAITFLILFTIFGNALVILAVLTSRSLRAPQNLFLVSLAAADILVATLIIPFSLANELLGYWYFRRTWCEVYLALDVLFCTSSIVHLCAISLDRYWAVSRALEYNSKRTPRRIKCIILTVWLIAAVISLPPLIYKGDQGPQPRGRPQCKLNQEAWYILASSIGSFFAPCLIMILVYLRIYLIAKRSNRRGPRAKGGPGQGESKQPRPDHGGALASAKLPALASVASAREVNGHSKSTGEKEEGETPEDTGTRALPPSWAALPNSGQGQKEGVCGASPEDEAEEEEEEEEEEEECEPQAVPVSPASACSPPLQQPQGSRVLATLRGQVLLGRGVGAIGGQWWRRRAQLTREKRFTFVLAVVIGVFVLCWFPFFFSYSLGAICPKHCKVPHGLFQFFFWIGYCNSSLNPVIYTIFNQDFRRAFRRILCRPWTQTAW
# Chain of α1D (P25100 whole entry): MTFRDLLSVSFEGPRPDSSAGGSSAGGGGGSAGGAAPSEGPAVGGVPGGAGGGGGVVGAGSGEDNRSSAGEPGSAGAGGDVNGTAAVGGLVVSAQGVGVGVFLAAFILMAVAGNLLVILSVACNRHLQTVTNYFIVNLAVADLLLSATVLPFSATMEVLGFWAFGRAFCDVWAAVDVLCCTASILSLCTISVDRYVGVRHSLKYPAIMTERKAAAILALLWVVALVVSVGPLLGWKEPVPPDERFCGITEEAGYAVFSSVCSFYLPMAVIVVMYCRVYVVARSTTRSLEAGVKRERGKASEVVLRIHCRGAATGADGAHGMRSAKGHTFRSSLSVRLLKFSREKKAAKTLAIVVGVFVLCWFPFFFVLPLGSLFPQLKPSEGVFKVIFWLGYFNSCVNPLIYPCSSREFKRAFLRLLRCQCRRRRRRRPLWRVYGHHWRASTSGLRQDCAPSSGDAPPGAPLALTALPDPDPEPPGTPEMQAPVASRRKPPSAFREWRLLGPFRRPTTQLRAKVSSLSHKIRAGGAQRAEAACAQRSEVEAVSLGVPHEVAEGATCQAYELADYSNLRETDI
# Chain of H2 (P25021 whole entry): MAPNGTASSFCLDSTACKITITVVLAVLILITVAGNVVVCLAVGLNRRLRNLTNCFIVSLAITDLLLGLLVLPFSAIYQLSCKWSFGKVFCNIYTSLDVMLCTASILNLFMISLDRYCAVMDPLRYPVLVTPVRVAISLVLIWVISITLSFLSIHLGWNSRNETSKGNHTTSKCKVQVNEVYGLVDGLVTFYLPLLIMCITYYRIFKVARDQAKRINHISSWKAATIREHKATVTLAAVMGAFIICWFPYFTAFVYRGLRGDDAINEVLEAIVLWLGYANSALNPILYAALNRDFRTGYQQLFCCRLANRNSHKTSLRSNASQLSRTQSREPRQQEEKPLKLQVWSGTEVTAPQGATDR
# Chain of β3-AR (P13945 whole entry): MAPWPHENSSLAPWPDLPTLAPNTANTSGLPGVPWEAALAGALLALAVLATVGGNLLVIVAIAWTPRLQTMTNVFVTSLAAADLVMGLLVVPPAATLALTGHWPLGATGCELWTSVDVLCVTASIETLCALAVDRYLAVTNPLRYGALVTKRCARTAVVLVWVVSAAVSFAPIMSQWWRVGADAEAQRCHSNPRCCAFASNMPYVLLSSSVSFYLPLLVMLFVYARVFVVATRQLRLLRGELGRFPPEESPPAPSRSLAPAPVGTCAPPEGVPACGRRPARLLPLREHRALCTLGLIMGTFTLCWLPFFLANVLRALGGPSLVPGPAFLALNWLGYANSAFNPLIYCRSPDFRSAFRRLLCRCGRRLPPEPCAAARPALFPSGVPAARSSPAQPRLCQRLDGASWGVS
# Chain of β1-AR (P08588 whole entry): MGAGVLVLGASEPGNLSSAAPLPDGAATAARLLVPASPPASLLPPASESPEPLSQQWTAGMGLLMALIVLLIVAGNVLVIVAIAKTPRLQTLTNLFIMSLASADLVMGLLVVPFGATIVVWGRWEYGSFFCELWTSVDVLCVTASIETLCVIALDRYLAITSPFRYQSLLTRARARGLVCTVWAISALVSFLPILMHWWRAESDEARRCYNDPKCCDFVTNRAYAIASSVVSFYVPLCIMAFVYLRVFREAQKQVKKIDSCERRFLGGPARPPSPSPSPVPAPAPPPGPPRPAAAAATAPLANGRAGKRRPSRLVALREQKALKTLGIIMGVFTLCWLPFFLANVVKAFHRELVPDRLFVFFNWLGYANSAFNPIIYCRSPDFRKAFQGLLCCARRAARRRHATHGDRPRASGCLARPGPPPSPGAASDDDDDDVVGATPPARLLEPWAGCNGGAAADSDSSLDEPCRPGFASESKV
# T6 sequence (P34969 whole entry, species assumed): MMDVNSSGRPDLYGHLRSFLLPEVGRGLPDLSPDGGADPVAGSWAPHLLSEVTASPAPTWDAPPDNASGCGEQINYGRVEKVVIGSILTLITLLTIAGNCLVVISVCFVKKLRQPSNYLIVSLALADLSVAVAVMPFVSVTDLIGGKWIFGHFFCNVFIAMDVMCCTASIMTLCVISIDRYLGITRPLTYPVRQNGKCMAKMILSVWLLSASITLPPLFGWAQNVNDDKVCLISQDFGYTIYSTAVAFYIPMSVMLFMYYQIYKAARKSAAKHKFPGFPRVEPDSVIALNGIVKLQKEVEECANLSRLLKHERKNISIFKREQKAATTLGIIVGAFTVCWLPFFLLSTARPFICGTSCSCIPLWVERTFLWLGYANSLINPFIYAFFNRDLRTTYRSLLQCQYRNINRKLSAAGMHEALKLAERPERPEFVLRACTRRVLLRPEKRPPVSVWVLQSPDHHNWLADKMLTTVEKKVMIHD
smiles,measurement,setting,value
COc1cc2c3c(c1OC)-c1ccccc1C[C@H]3N(C)CC2 [nuciferine],Ki,β1-AR,7150 nM
same,effect on DA uptake in isolated vesicles,hVMAT2,no effect
same,EC50,hDAT,1.8 nM
same,effect on dopamine uptake in HEK-DAT/VMAT2 cells,hDAT and hVMAT2,no effect
same,Ki,H2,1660 nM
same,EC50,5-HT6,700 nM
same,Function Type,5-HT6,Partial agonist
same,Emax,5-HT6; read-out: maximal effect,17.3%
same,Ki,α2B,687 nM
same,In Vitro Affinity,D5,(neg) [^3H]SCH23390
same,Ki,MOR,9550 nM
same,Ki,α1D,818 nM
same,PPI in the pharmacological model using amphetamine,mice,failed to normalize PPI
same,Ki,5-HT1A,77 nM
same,Ki,α2A,1150 nM
same,catalepsy,"male C57BL/6J mice; 10.0 mg/kg, any of the time-points examined",did not produce catalepsy
same,latency to movement,male C57BL/6J mice; 30 min post-injection,2.3 ± 2.3 s
same,latency to movement,male C57BL/6J mice; 60 min post-injection,4.7 ± 2.6 s
same,Ki,β3-AR,1100 nM
same,crossing of the blood brain barrier,[1],shown to cross the blood brain barrier
same,substitution of cumulative DOI doses for the DOI training dose,male NIH Swiss mice; in the presence of 1.0 mg/kg nuciferine,partial substitution
same,substitution of cumulative DOI doses for the DOI training dose,male NIH Swiss mice; in the presence of 3.0 mg/kg nuciferine,no cumulative dose of DOI substituted for the training dose
same,Ki,D4,1390 nM
same,Function Type,5-HT2B,Antagonist
same,IC50,5-HT2B; 5-HT2B antagonist,1000 nM
same,EC50,5-HT2B; antagonist,1000 nM
same,Ki,5-HT7,49.8 nM
same,Ki,DOR,10000 nM
same,Function Type,5-HT2C,Antagonist
same,IC50,5-HT2C; 5-HT2C antagonist,131 nM
same,EC50,5-HT2C; antagonist,131 nM
